Measured values published in patent US11478476B2 (CONTERA PHARMA APS, priority 2014, dated 2022).
Where two headings read alike, the source gives them in different places.

Tests used:
[1] = target: human recombinant dopamine D2 receptor (Homo sapiens, UniProt P14416); settings: saturating concentrations of dopamine; read-out: D2 efficacy IC50 ± SEM; cited from earlier work
[2] = target: T1, human recombinant dopamine D3 receptor (Homo sapiens, UniProt P35462); settings: saturating concentrations of dopamine; read-out: D3 efficacy IC50 ± SEM; cited from earlier work
T1 sequence (P35462 whole entry): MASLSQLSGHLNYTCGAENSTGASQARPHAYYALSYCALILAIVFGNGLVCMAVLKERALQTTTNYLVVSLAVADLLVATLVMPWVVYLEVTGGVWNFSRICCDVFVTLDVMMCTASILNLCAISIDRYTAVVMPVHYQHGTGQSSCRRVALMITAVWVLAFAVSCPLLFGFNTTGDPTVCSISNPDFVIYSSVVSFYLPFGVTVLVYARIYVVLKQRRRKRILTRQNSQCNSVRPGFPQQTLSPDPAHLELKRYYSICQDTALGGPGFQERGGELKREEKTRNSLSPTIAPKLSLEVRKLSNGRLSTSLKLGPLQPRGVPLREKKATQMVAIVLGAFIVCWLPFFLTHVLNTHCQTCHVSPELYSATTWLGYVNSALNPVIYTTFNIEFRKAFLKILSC

PD model rats = assay: Stepping test (adjusting steps) in PD model rats; assay type: in vivo, rat; settings: 6-OH-Busp 3 mg/kg, sc added to L-DOPA 10 mg/kg
Protocol: The stepping test (Schallert et al., 1992) was performed as described by Kirik et al., 2001 with little modifications. Briefly, the rat was held by the experimenter fixing its hindlimbs with one hand and the forelimb not to be monitored with the other, while the unrestrained forepaw was touching the table. The number of adjusting steps was counted, while the rat was moved sideways along the table surface (90 cm in 5 s), in the forehand and backhand direction, for both forelimbs, and the average of the steps in the two directions is considered.
30 male PD model rats were used for adjusting steps test with the following groups: • 1. Vehicle 1+Vehicle 2 (n=7) • 2. Vehicle 1+L-DOPA (10 mg/kg, sc) (n=7) • 3. 6-OH-Busp (3 mg/kg, sc)+Vehicle 2 (n=8) • 4. 6-OH-Busp (3 mg/kg, sc)+L-DOPA (10 mg/kg, sc)
The PD rats were handled for 3 consecutive days. Vehicle 1 or 6-OH-Busp will s.c. dosed 61 min before adjusting steps test. Vehicle 2 or L-DOPA/Benserazide dosed 60 min before adjusting steps test. On testing day, the rats were held by both hind limbs and the untested forepaw. The test forepaw was placed on a flat surface and dragged in the forehand direction for 90 cm distance over 5 s. The number of adjusting steps was counted for both paws in the backhand and forehand directions of movement. […] Data were analyzed and graphed by Graph Pad Prism 6.

[3] = cited from earlier work
[4] = target: T2, serotonin 5-HT1A receptor (Rattus norvegicus, UniProt P19327); settings: rats, intravenous infusions to steady-state plasma levels, cited from earlier work
T2 construct: host or cells: rat brain in vivo (dorsal raphe, hippocampus)
T2 sequence (P19327 1-422): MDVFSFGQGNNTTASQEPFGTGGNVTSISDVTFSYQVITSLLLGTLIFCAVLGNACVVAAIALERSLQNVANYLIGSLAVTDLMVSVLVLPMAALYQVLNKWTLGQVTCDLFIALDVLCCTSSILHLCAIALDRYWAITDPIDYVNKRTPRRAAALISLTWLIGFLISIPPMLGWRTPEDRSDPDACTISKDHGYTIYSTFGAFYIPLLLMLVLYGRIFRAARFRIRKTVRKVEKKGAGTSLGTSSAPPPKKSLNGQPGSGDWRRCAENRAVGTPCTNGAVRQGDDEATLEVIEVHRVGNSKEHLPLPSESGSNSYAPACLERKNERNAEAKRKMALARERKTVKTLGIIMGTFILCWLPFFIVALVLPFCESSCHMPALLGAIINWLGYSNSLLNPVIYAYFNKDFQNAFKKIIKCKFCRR

[5] = target: T3, human recombinant dopamine D4 receptor (Homo sapiens, UniProt P21917); settings: read-out: D4 affinity Ki ± SEM; cited from earlier work
T3 sequence (P21917 1-419): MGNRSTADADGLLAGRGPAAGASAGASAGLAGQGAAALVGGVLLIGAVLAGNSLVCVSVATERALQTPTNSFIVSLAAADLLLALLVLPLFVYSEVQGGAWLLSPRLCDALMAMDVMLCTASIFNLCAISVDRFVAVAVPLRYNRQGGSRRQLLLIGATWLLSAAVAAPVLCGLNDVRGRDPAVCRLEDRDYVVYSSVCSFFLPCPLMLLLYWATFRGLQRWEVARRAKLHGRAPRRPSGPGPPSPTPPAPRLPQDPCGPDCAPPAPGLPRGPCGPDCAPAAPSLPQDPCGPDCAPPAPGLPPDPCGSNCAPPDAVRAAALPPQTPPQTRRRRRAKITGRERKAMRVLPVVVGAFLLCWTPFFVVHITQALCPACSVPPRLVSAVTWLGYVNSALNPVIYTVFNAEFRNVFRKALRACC

[6] = target: T1, human recombinant dopamine D3 receptor; settings: read-out: D3 affinity Ki ± SEM; cited from earlier work
[7] = human volunteers, cited from earlier work
[8] = oral administration of buspirone, analyte = label (6-OH-Busp: total, both enantiomers)
[9] = oral administration of racemic 6-OH-Busp, exposure of 6-OH-Busp

human recombinant dopamine D2 receptor, sequence (P14416 whole entry): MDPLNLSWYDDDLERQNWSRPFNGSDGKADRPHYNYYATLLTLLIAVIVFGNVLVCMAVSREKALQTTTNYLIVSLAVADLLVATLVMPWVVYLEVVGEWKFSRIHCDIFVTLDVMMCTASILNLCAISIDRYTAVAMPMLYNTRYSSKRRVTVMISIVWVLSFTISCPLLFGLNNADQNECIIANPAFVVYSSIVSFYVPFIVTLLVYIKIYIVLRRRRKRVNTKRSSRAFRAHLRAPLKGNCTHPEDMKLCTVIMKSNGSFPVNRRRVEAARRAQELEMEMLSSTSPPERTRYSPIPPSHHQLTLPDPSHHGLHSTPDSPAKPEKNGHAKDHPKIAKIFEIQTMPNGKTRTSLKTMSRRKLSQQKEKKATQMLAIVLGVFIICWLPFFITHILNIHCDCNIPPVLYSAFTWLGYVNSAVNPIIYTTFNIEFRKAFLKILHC

O=C1CC2(CCCC2)C(O)C(=O)N1CCCCN1CCN(c2ncccn2)CC1 (racemic) [6-OH-Busp]
IC50 [1]: 3100 ± 1800 nM | IC50 [2]: 4900 ± 2800 nM | effect on adjusting steps of adding 6-OH-Busp to L-DOPA (PD model rats): no significant different effect | exposure (area under the concentration-time profile) of metabolite relative to parent compound ([3]; oral dosing of buspirone in rats): 12 fold | Bioavailability ([3]; rats): 19% | plasma half-life ([3]; rats): 1.2 ± 0.2 h | EC50 ([4]; dorsal raphe (presynaptic), read-out: 5-HT1A receptor occupancy EC50, dorsal raphe): 1000 ± 300 nM | EC50 ([4]; hippocampus (postsynaptic), read-out: 5-HT1A receptor occupancy EC50, hippocampus): 4000 ± 600 nM | Ki [5]: 40.4 ± 17.5 nM | Ki [6]: 795 ± 84 nM | half-life (T½) ([7]; after administration of either parent buspirone or 6-OH-Busp): longer than that of buspirone | AUC0-INF [7, 8]: 52.93 ngxh/ml | Cmax [7, 8]: 9.12 ng/mL | AUC0-INF [7, 9]: 131.52 ngxh/ml | Cmax [7, 9]: 25.63 ng/mL
